This note sets out measurements from ChEMBL document CHEMBL1255475, “Mutant prevention concentrations of four carbapenems against gram-negative rods” (2010).

The term MIC denotes the least concentration at which growth counts as inhibited. Higher therefore signals a need for much substance.

The test system of assay [1] is Pseudomonas aeruginosa. As to the kind of experiment: Ratio of mutant prevention concentration to minimum Inhibitory concentration for Pseudomonas aeruginosa P340. The class given is functional.
For assay [2], the system named is Pseudomonas aeruginosa. Briefly: Ratio of mutant prevention concentration to minimum Inhibitory concentration for Pseudomonas aeruginosa P349. It is filed as functional.
The subject of assay [3] is Pseudomonas aeruginosa. Briefly: Ratio of mutant prevention concentration to minimum Inhibitory concentration for Pseudomonas aeruginosa P341. It is filed as functional.
The subject of assay [4] is Acinetobacter baumannii. Briefly: Ratio of mutant prevention concentration to minimum Inhibitory concentration for Acinetobacter baumannii A896. It is filed as functional.
Assay [5] deals with Acinetobacter baumannii. As to the kind of experiment: Ratio of mutant prevention concentration to minimum Inhibitory concentration for Acinetobacter baumannii A894. The class given is functional.
A further assay deals with Klebsiella pneumoniae. As to the kind of experiment: Antibacterial activity against beta-lactamase-negative Klebsiella pneumoniae E358 after 24 hrs by agar dilution method. The class given is functional. Particulars: E358, 24 h.
In assay [6] the test system is Pseudomonas aeruginosa. As to the kind of experiment: Antibacterial activity against Pseudomonas aeruginosa P323 after 24 hrs by agar dilution method. Particulars: P323, 24 h.

SMILES strings stand for the structures. Values after ≈ are worked out from the molar mass of the structure shown.

`C[C@@H](O)[C@H]1C(=O)N2C(C(=O)O)=C(S[C@@H]3CN[C@H](CNS(N)(=O)=O)C3)[C@H](C)[C@H]12` [DORIPENEM]: the Ratio is given as 8 in the assay with Pseudomonas aeruginosa [1]; 16 with Pseudomonas aeruginosa [2]; 16 in the assay with Pseudomonas aeruginosa [3]; 2 with Acinetobacter baumannii [4]; 4 in the assay on Acinetobacter baumannii [5].
For the molecule `C[C@@H](O)[C@H]1C(=O)N2C(C(=O)O)=C(SCCNC=N)C[C@H]12` [IMIPENEM ANHYDROUS], the MIC against Klebsiella pneumoniae is 0.25 µg/mL (≈ 0.835 µM); against Pseudomonas aeruginosa [6] it was 2 µg/mL (≈ 6.68 µM).
